Active and inactive are the calls of the source. The rule behind the calls is not given here.
Key:
[1] = Toxicity in ip dosed CD1 mouse administered as single dose; assay type: organism-based; conditions: in vivo
KM12 = assay: Cytotoxicity against human KM12 cells after 48 hrs by SRB assay; assay type: functional; conditions: KM12, 48 h
ACHN = assay: Cytotoxicity against human ACHN cells after 48 hrs by SRB assay; assay type: functional
T47D = assay: Cytotoxicity against human T47D cells after 48 hrs by SRB assay; assay type: functional
SN12C = assay: Cytotoxicity against human SN12C cells after 48 hrs by SRB assay; assay type: functional
Mus musculus [2] = assay: Toxicity in athymic nu/nu Harlan mouse xenografted with human SK-MEL-2 cells assessed as adverse reactions at 10 mg/kg, iv administered Q2D for 10 days relative to control; assay type: organism-based; set-up: dose 10 mg/kg, route intravenous; conditions: in vivo, 240 h
LOX IMVI = assay: Cytotoxicity against human LOXIMVI cells after 48 hrs by SRB assay; assay type: functional
SNB-75 = assay: Cytotoxicity against human SNB75 cells after 48 hrs by SRB assay; assay type: functional; conditions: SNB-75, 48 h
NCI-H23 = assay: Cytotoxicity against human NCI-H23 cells after 48 hrs by SRB assay; assay type: functional; conditions: NCI-H23, 48 h
COLO 205 [3] = assay: Antitumor activity against human COLO205 cells xenografted in athymic nu/nu Harlan mouse assessed as tumor growth inhibition at 20 mg/kg, iv administered Q3D for 10 days relative to control; assay type: functional, organism-based; set-up: dose 20 mg/kg
HCT-15 = assay: Cytotoxicity against human HCT15 cells after 48 hrs by SRB assay; assay type: functional; conditions: HCT-15, 48 h
SW-620 = assay: Cytotoxicity against human SW620 cells after 48 hrs by SRB assay; assay type: functional; conditions: SW-620, 48 h
OVCAR-8 = assay: Cytotoxicity against human OVCAR8 cells after 48 hrs by SRB assay; assay type: functional; conditions: OVCAR-8, 48 h, read-out: pGI50 (converted)
CCRF-CEM = assay: Cytotoxicity against human CCRF-CEM cells after 48 hrs by SRB assay; assay type: functional
SK-OV-3 = assay: Cytotoxicity against human SKOV3 cells after 48 hrs by SRB assay; assay type: functional; conditions: SK-OV-3, 48 h
U-251 = assay: Cytotoxicity against human U251 cells after 48 hrs by SRB assay; assay type: functional; conditions: U-251, 48 h, read-out: pGI50 (converted)
[4] = Plasma concentration in CD1 mouse at 18 mg/kg, iv administered as single dose measured after 30 mins; assay type: ADME, organism-based; set-up: dose 18 mg/kg, route intravenous
RPMI-8226 = assay: Cytotoxicity against human RPMI8226 cells after 48 hrs by SRB assay; assay type: functional; conditions: RPMI-8226, 48 h
SR = assay: Cytotoxicity against human SR cells after 48 hrs by SRB assay; assay type: functional
MDA-MB-435 = assay: Cytotoxicity against human MDA-MB-435 cells after 48 hrs by SRB assay; assay type: functional; conditions: MDA-MB-435, 48 h
COLO 205 [5] = assay: Cytotoxicity against human COLO205 cells after 48 hrs by SRB assay; assay type: functional; conditions: COLO 205, 48 h, read-out: pGI50 (converted)
A549 = assay: Cytotoxicity against human A549 cells after 48 hrs by SRB assay; assay type: functional; conditions: A549, 48 h, read-out: pGI50 (converted)
[6] = Plasma concentration in CD1 mouse at 18 mg/kg, iv administered as single dose measured after 120 mins; assay type: ADME, organism-based; set-up: dose 18 mg/kg, route intravenous
Mus musculus [7] = assay: Toxicity in athymic nu/nu Harlan mouse xenografted with human COLO205 cells assessed as mortality at 10 mg/kg, iv administered Q2D for 10 days relative to control; assay type: organism-based, COLO 205; set-up: dose 10 mg/kg, route intravenous; conditions: in vivo, 240 h
UACC-62 = assay: Cytotoxicity against human UACC62 cells after 48 hrs by SRB assay; assay type: functional; conditions: UACC-62, 48 h
UACC-257 = assay: Cytotoxicity against human UACC257 cells after 48 hrs by SRB assay; assay type: functional; conditions: UACC-257, 48 h
CAKI-1 = assay: Cytotoxicity against human Caki1 cells after 48 hrs by SRB assay; assay type: functional; conditions: CAKI-1, 48 h
NCI-H460 = assay: Cytotoxicity against human NCI-H460 cells after 48 hrs by SRB assay; assay type: functional; conditions: NCI-H460, 48 h
PC-3 = assay: Cytotoxicity against human PC3 cells after 48 hrs by SRB assay; assay type: functional; conditions: PC-3, 48 h
SF-268 = assay: Cytotoxicity against human SF268 cells after 48 hrs by SRB assay; assay type: functional; conditions: SF-268, 48 h
TK-10 = assay: Cytotoxicity against human TK10 cells after 48 hrs by SRB assay; assay type: functional; conditions: TK-10, 48 h
Mus musculus [8] = assay: Toxicity in iv dosed CD1 mouse administered Q3D for 8 days; assay type: organism-based; conditions: in vivo, 192 h
Malme-3M = assay: Cytotoxicity against human MALME-3M cells after 48 hrs by SRB assay; assay type: functional
Mus musculus [9] = assay: Toxicity in athymic nu/nu Harlan mouse xenografted with human SK-MEL-2 cells assessed as mortality at 20 mg/kg, iv administered Q3D for 10 days relative to control; assay type: organism-based; set-up: dose 20 mg/kg, route intravenous; conditions: in vivo, 240 h
[10] = Cytotoxicity against human 786-O cells after 48 hrs by SRB assay; assay type: functional; conditions: 786-0, 48 h
Mus musculus [11] = assay: Toxicity in iv dosed CD1 mouse administered Q2D for 8 days; assay type: organism-based; conditions: mouse, in vivo, 192 h
OVCAR-5 = assay: Cytotoxicity against human OVCAR5 cells after 48 hrs by SRB assay; assay type: functional; conditions: OVCAR-5, 48 h
K562 = assay: Cytotoxicity against human K562 cells after 48 hrs by SRB assay; assay type: functional; conditions: K562, 48 h
HT-29 = assay: Cytotoxicity against human HT-29 cells after 48 hrs by SRB assay; assay type: functional; conditions: HT-29, 48 h
OVCAR-4 = assay: Cytotoxicity against human OVCAR4 cells after 48 hrs by SRB assay; assay type: functional; conditions: OVCAR-4, 48 h
NCI-H226 = assay: Cytotoxicity against human NCI-H226 cells after 48 hrs by SRB assay; assay type: functional; conditions: NCI-H226, 48 h
Mus musculus [12] = assay: Toxicity in athymic nu/nu Harlan mouse xenografted with human SK-MEL-2 cells assessed as change in body weight at 10 mg/kg, iv administered Q2D for 10 days relative to control; assay type: organism-based; set-up: dose 10 mg/kg, route intravenous; conditions: in vivo, 240 h
Mus musculus [13] = assay: Toxicity in athymic nu/nu Harlan mouse xenografted with human SK-MEL-2 cells assessed as mortality at 10 mg/kg, iv administered Q2D for 10 days relative to control; assay type: organism-based; set-up: dose 10 mg/kg, route intravenous; conditions: in vivo, 240 h
Mus musculus [14] = assay: Toxicity in athymic nu/nu Harlan mouse xenografted with human COLO205 cells assessed as change in body weight at 10 mg/kg, iv administered Q2D for 10 days relative to control; assay type: organism-based, COLO 205; set-up: dose 10 mg/kg, route intravenous; conditions: in vivo, 240 h
Mus musculus [15] = assay: Toxicity in athymic nu/nu Harlan mouse xenografted with human COLO205 cells assessed as adverse reactions at 10 mg/kg, iv administered Q2D for 10 days relative to control; assay type: organism-based, COLO 205; set-up: dose 10 mg/kg, route intravenous; conditions: in vivo, 240 h
MOLT-4 = assay: Cytotoxicity against human MOLT4 cells after 48 hrs by SRB assay; assay type: functional; conditions: MOLT-4, 48 h
MDA-MB-231 = assay: Cytotoxicity against human MDA-MB-231 cells after 48 hrs by SRB assay; assay type: functional; conditions: MDA-MB-231, 48 h
[16] = Plasma concentration in CD1 mouse at 18 mg/kg, iv administered as single dose measured after 5 mins; assay type: ADME, organism-based; set-up: dose 18 mg/kg, route intravenous

With `CO[C@@H]([C@@H]1Cc2cc3cc(O[C@H]4C[C@@H](O[C@H]5C[C@@H](O)[C@H](O)[C@@H](C)O5)[C@H](O)[C@@H](C)O4)c(C)c(O)c3c(O)c2C(=O)[C@H]1O[C@H]1C[C@@H](O[C@H]2C[C@@H](O[C@H]3C[C@H](O)[C@H](O)[C@@H](C)O3)[C@H](O)[C@@H](C)O2)[C@H](O)[C@@H](C)O1)[C@@H](O)C(C)=O` the MTD [1] was 200 mg/kg, the GI50 (KM12) was 17.8 nM and the GI50 (ACHN) was 34.7 nM. The GI50 (T47D) was 25.7 nM, the GI50 (SN12C) was 20.9 nM and the Activity (Mus musculus [2]) was “Non-toxic”. It also gave a GI50 (LOX IMVI) of 16.6 nM, a GI50 (SNB-75) of 32.4 nM and a GI50 (NCI-H23) of 22.4 nM. For the same compound, the TGI (COLO 205 [3]) was “Active”, the GI50 (HCT-15) was 1050 nM and the GI50 (SW-620) was 22.4 nM. The GI50 (OVCAR-8) was 35.5 nM, the GI50 (CCRF-CEM) was 24.6 nM and the GI50 (SK-OV-3) was 26.3 nM. The GI50 (U-251) was 18.6 nM, the concentration at 0.5 h [4] was 1700 nM and the GI50 (RPMI-8226) was 16.2 nM. The GI50 (SR) was 12.9 nM, the GI50 (MDA-MB-435) was 23.4 nM and the GI50 (COLO 205 [5]) was 21.4 nM. The GI50 (A549) was 20.4 nM, the concentration at 2 h [6] was less than 100 nM and the Activity (Mus musculus [7]) was “Non-toxic”. It also gave a GI50 (UACC-62) of 12 nM, a GI50 (UACC-257) of 41.7 nM and a GI50 (CAKI-1) of 138 nM. The GI50 (NCI-H460) was 17.8 nM, the GI50 (PC-3) was 21.4 nM and the GI50 (SF-268) was 22.4 nM. For the same compound, the GI50 (TK-10) was 52.5 nM, the MTD (Mus musculus [8]) was 24 mg/kg and the GI50 (Malme-3M) was 19.5 nM. For the same compound, the Activity (Mus musculus [9]) was “Non-toxic”, the GI50 [10] was 32.4 nM and the MTD (Mus musculus [11]) was 12 mg/kg. It also gave a GI50 (OVCAR-5) of 39.8 nM, a GI50 (K562) of 17.4 nM and a GI50 (HT-29) of 21.4 nM. For the same compound, the GI50 (OVCAR-4) was 56.2 nM, the GI50 (NCI-H226) was 20.4 nM and the Activity (Mus musculus [12]) was “Non-toxic”. The Activity (Mus musculus [13]) was “Non-toxic”, the Activity (Mus musculus [14]) was “Non-toxic” and the Activity (Mus musculus [15]) was “Non-toxic”. The GI50 (MOLT-4) was 19.9 nM, the GI50 (MDA-MB-231; read-out: GI50) was 50 nM and the GI50 (MDA-MB-231; read-out: pGI50 (converted)) was 47.9 nM. It also gave a concentration at 5 min [16] of 28000 nM.

Reference: ChEMBL document CHEMBL2150933 (J Med Chem, 2012)
